Test results taken from ChEMBL document CHEMBL4229538, “Design, synthesis and structure-activity relationship of diaryl-ureas with novel isoxazol[3,4-b]pyridine-3-amino-structure as multi-target inhibitors against receptor tyrosine kinase” (Bioorg Med Chem, 2018).

Biological target: Platelet-derived growth factor receptor beta (Homo sapiens, UniProt P09619)
Experiment: Inhibition of human PDGFRbeta using biotin labeled substrate after 1 hr by HTFR assay
Conditions: not given; call rule not given here

Sequence of Platelet-derived growth factor receptor beta (P09619 whole entry): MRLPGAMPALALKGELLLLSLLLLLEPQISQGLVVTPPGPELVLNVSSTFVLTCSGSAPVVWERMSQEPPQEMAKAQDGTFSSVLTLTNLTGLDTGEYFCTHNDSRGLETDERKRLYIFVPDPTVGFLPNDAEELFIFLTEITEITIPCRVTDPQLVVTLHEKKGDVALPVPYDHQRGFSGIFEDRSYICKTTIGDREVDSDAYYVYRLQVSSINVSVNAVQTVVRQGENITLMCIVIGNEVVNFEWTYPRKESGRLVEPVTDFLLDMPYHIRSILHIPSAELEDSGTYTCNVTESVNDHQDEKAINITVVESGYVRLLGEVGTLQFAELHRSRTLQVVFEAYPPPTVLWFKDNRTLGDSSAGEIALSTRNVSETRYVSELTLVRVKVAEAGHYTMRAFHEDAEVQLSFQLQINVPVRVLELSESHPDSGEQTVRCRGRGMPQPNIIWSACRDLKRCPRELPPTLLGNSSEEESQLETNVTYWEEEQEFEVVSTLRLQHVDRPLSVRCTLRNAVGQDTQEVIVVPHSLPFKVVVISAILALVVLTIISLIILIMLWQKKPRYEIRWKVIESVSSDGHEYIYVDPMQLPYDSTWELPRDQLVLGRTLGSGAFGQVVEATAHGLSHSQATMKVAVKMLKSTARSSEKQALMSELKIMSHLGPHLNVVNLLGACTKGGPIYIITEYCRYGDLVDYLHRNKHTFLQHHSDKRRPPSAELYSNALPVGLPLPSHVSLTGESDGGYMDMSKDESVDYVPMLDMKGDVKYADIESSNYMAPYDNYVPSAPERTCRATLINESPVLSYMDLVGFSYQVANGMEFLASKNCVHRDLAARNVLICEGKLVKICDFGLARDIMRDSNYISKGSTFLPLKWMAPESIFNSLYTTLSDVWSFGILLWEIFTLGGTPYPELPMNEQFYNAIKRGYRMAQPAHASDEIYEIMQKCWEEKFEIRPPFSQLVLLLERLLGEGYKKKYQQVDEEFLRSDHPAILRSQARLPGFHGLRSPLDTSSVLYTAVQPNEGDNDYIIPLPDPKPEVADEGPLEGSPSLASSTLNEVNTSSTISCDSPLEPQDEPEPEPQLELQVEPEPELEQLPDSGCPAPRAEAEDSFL

IC50	SMILES
Not Active	COc1ccc(NC(=O)Nc2ccc(-c3cc(-c4ccccc4)nc4noc(N)c34)cc2)cc1
Not Active	C/C=C\C(=O)Nc1ccc(NC(=O)Nc2ccc(-c3cc(C)nc4noc(N)c34)cc2)cc1C
Not Active	C/C=C\C(=O)Nc1ccc(NC(=O)Nc2ccc(-c3cc(C)nc4noc(N)c34)cc2)cc1
Not Active	Nc1onc2nc(-c3ccccc3)cc(-c3ccc(NC(=O)Nc4ccccc4F)cc3)c12
Not Active	C=CC(=O)Nc1ccc(NC(=O)Nc2ccc(-c3cc(-c4ccccc4)nc4noc(N)c34)cc2)cc1

Same assay, conditions: read-out: IC50

SMILES	IC50 [nM]
Cc1cc(-c2ccc(NC(=O)Nc3cccc(Cl)c3)cc2)c2c(N)onc2n1	40
Cc1cccc(NC(=O)Nc2ccc(-c3cc(-c4ccccc4)nc4noc(N)c34)cc2)c1	1230
Nc1onc2nc(-c3ccccc3)cc(-c3ccc(NC(=O)Nc4ccc(Cl)c(C(F)(F)F)c4)cc3)c12	290
Cc1cccc(NC(=O)Nc2ccc(-c3cc(C)nc4noc(N)c34)cc2)c1	8
Nc1onc2nc(-c3ccccc3)cc(-c3ccc(NC(=O)Nc4cccc(F)c4)cc3)c12	3250
Cc1ccc(NC(=O)Nc2ccc(-c3cc(-c4ccccc4)nc4noc(N)c34)cc2)cc1	1260
Cc1cc(-c2ccc(NC(=O)Nc3ccc(Cl)c(C(F)(F)F)c3)cc2)c2c(N)onc2n1	20

Results, then the molecule that gave them:

IC50 [nM]	SMILES
510	C=C(CN1CCOCC1)C(=O)Nc1ccc(NC(=O)Nc2ccc(-c3cc(C)nc4noc(N)c34)cc2)cc1C
20	Cc1cc(-c2ccc(NC(=O)Nc3cccc(C(F)(F)F)c3)cc2)c2c(N)onc2n1
2230	Nc1onc2nc(-c3ccccc3)cc(-c3ccc(NC(=O)Nc4cccc(Cl)c4)cc3)c12
3780	Nc1onc2nc(-c3ccccc3)cc(-c3ccc(NC(=O)Nc4ccc(F)cc4)cc3)c12
3520	Nc1onc2nc(-c3ccccc3)cc(-c3ccc(NC(=O)Nc4ccccc4)cc3)c12
820	Cc1cc(-c2ccc(NC(=O)Nc3ccccc3Cl)cc2)c2c(N)onc2n1

Tested on: HUVEC
Experiment: Antiproliferative activity against HUVEC after 72 hrs by cell titer glo-based fluorescence assay
Conditions: Homo sapiens

SMILES	IC50 [nM]
Cc1cc(-c2ccc(NC(=O)Nc3cccc(Cl)c3)cc2)c2c(N)onc2n1	15200
Cc1cc(-c2ccc(NC(=O)Nc3cccc(C(F)(F)F)c3)cc2)c2c(N)onc2n1	7950
Cc1cccc(NC(=O)Nc2ccc(-c3cc(C)nc4noc(N)c34)cc2)c1	11700
Cc1cc(-c2ccc(NC(=O)Nc3ccc(Cl)c(C(F)(F)F)c3)cc2)c2c(N)onc2n1	12600
Cc1ccc(F)c(NC(=O)Nc2ccc(-c3cccc4[nH]nc(N)c34)cc2)c1 [LINIFANIB]	40100

Tested on: MCF7
Experiment: Antiproliferative activity against human MCF7 cells after 72 hrs by cell titer glo-based fluorescence assay
Conditions: MCF7, 72 h

SMILES	IC50 [nM]
Cc1cc(-c2ccc(NC(=O)Nc3cccc(Cl)c3)cc2)c2c(N)onc2n1	39500
Cc1cccc(NC(=O)Nc2ccc(-c3cc(C)nc4noc(N)c34)cc2)c1	10500
Cc1cc(-c2ccc(NC(=O)Nc3ccc(Cl)c(C(F)(F)F)c3)cc2)c2c(N)onc2n1	28800

The next lines start with the values.

IC50 [nM]	SMILES
37400	Cc1cc(-c2ccc(NC(=O)Nc3cccc(C(F)(F)F)c3)cc2)c2c(N)onc2n1
17000	Cc1ccc(F)c(NC(=O)Nc2ccc(-c3cccc4[nH]nc(N)c34)cc2)c1 [LINIFANIB]

Tested on: MV4-11
Experiment: Antiproliferative activity against human MV4-11 cells after 72 hrs by cell titer glo-based fluorescence assay
Conditions: MV4-11, 72 h

SMILES	IC50 [nM]
Cc1cc(-c2ccc(NC(=O)Nc3cccc(Cl)c3)cc2)c2c(N)onc2n1	540
Cc1cccc(NC(=O)Nc2ccc(-c3cc(C)nc4noc(N)c34)cc2)c1	120
Cc1cc(-c2ccc(NC(=O)Nc3ccc(Cl)c(C(F)(F)F)c3)cc2)c2c(N)onc2n1	340

Other lines, results leading:

IC50 [nM]	SMILES
610	Cc1cc(-c2ccc(NC(=O)Nc3cccc(C(F)(F)F)c3)cc2)c2c(N)onc2n1
690	Cc1ccc(F)c(NC(=O)Nc2ccc(-c3cccc4[nH]nc(N)c34)cc2)c1 [LINIFANIB]

Biological target: T1, Receptor-type tyrosine-protein kinase FLT3 (Homo sapiens, UniProt P36888)
T1 sequence (P36888 whole entry): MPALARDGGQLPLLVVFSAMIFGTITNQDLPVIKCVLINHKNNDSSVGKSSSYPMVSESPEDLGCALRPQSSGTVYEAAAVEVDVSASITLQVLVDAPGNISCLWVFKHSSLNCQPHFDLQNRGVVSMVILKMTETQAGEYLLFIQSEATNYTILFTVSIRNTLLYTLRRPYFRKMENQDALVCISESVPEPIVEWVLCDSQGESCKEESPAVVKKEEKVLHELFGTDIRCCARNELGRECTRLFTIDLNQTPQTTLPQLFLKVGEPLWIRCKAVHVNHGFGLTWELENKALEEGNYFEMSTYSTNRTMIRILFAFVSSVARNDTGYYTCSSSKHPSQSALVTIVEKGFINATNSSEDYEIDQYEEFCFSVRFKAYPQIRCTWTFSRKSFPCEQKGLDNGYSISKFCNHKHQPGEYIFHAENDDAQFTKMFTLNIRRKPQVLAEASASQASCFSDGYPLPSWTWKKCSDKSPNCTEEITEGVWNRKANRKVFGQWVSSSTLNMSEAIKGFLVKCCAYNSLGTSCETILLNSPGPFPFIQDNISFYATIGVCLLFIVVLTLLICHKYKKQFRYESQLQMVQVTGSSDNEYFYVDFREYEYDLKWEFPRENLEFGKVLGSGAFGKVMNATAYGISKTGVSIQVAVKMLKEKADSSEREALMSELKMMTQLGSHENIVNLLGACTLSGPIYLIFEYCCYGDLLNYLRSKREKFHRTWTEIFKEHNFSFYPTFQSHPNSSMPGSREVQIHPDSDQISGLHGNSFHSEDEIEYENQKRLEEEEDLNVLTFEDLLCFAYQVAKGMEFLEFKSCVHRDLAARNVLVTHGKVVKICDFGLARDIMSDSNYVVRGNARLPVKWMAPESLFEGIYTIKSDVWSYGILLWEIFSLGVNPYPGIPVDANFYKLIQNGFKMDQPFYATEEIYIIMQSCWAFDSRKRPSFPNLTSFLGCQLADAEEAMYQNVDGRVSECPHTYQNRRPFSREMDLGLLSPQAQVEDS
Conditions: not given

IC50	SMILES
Not Active	Nc1onc2nc(-c3ccccc3)cc(-c3ccc(NC(=O)Nc4ccccc4F)cc3)c12
Not Active	C=CC(=O)Nc1ccc(NC(=O)Nc2ccc(-c3cc(-c4ccccc4)nc4noc(N)c34)cc2)cc1

Biological target: Vascular endothelial growth factor receptor 2 (Homo sapiens, UniProt P35968)
Conditions: not given

Sequence of Vascular endothelial growth factor receptor 2 (P35968 whole entry): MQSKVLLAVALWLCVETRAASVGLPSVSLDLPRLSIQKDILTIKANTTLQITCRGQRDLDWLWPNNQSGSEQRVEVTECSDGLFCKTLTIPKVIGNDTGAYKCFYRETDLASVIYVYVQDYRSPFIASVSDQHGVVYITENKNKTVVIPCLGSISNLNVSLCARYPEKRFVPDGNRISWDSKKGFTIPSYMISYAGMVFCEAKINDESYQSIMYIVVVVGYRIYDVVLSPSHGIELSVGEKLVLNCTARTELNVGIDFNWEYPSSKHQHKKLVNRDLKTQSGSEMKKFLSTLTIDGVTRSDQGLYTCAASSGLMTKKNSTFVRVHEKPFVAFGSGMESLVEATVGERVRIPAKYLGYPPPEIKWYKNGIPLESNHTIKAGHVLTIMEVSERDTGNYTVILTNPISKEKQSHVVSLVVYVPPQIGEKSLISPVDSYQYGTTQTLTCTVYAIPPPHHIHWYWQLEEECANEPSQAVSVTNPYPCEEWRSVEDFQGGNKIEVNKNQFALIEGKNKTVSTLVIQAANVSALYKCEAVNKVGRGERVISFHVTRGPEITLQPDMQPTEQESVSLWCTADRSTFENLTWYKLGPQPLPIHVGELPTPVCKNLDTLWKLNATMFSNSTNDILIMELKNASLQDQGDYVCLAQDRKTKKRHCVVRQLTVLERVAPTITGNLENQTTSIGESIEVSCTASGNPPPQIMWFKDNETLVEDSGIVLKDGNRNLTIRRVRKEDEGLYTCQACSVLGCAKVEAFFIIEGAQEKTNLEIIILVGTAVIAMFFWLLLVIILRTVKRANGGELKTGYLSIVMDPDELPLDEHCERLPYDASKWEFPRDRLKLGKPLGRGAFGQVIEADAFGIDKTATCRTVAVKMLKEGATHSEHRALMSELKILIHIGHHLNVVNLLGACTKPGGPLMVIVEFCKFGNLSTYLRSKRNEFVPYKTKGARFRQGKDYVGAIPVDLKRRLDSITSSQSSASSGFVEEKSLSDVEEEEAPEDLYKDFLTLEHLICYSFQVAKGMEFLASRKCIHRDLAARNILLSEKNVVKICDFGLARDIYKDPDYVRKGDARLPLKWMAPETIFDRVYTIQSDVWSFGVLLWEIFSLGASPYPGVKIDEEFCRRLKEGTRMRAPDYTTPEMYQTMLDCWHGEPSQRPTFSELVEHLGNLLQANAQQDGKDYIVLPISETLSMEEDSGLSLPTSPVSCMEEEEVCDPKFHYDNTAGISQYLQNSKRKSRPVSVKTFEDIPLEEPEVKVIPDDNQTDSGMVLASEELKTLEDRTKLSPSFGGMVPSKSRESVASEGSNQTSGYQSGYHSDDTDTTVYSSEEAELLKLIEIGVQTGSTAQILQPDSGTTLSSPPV

SMILES	IC50
COc1ccc(NC(=O)Nc2ccc(-c3cc(-c4ccccc4)nc4noc(N)c34)cc2)cc1	Not Active
C/C=C\C(=O)Nc1ccc(NC(=O)Nc2ccc(-c3cc(C)nc4noc(N)c34)cc2)cc1	Not Active
Cc1ccc(NC(=O)Nc2ccc(-c3cc(-c4ccccc4)nc4noc(N)c34)cc2)cc1	Not Active
Nc1onc2nc(-c3ccccc3)cc(-c3ccc(NC(=O)Nc4ccccc4F)cc3)c12	Not Active
C=CC(=O)Nc1ccc(NC(=O)Nc2ccc(-c3cc(-c4ccccc4)nc4noc(N)c34)cc2)cc1	Not Active

The next lines start with the values.

IC50	SMILES
Not Active	C/C=C\C(=O)Nc1ccc(NC(=O)Nc2ccc(-c3cc(C)nc4noc(N)c34)cc2)cc1C
Not Active	Nc1onc2nc(-c3ccccc3)cc(-c3ccc(NC(=O)Nc4ccccc4)cc3)c12
